The source of these data is patent US20040048900A1, “Nicotine and/or nicotine agonists for the treatment of general anesthetic effects and side effects” (priority 2002, published 2004).

Structures are written as SMILES. Bounds are passed on as bounds.

Data set [1] deals with norepinephrine levels in brain and spinal cord. The data set is described as follows: HPLC of norepinephrine, 5-HT, dopamine and metabolites after DSP-4. Format: in vivo, mice. Conditions: DSP4-treated n = 2. An excerpt:
(§1) How could nicotinic inhibition cause hyperalgesia? Nicotine is thought to exert its analgesic action by increasing the release of norepinephrine, serotonin and acetylcholine onto the relay neurons in the dorsal horn of the spinal cord (Rao, 1996; and Reuter, 2000). Isoflurane might reduce pain threshold by inhibiting nicotinic acetylcholine receptors tonically active in potentiating the release of norepinephrine, serotonin and/or acetylcholine. To test the role of the α-adrenergic system, mice were treated systemically with the adrenergic neurotoxin DSP-4 to deplete norepinephrine levels (Jonsson, 1981). The DSP-4 mice 14 days after treatment were tested for HPWL in the presence of isoflurane alone or isoflurane with nicotine pretreatment (see methods).
The HPLC procedures were conducted according to the methods described by Underwood et al. (Underwood, 1999).

The conditions of data set [2]: Qian, 1993; Badio, 1994; cited from earlier work.
Data set [3] deals with mice.
From the text: Nicotinic acetylcholine receptors are involved in the mechanism of isoflurane hyperalgesia, and nicotinic inhibition could be the initiating event.
as §1
To test the role of muscarinic receptors for acetylcholine, mice were treated with the nonspecific muscarinic antagonist, atropine. A cholinergic neurotoxin could not be used for these studies, because removing all cholinergic neurons would have nicotinic in addition to muscarinic effects. Instead, postsynaptic muscarinic blockade was used. ACh causes analgesia, at least in part due to muscarinic stimulation (Chiari, 1999; Smith, 1989; and Lavand'homme, 1999). […] High concentrations of atropine can block nicotinic acetylcholine receptors as well (Zwart, 1997).

The test system of a further data set is seizures induced by NMDA. Conditions: McDonough, 1995; cited from earlier work.
The next data set concerns NMDA. The following applies: O'Dell, 1988; Papke, 2001; cited from earlier work.
Another data set can be described thus: in vivo. The following applies: female, mouse, plasma, 5 mg/kg.
For data set [4], the target named is T1, human α4β2 nAChRs expressed in Xenopus oocytes (Homo sapiens, UniProt P17787+P43681).
T1 construct: expressed in transfected cells; host or cells: Xenopus laevis oocytes injected with cRNA (1:1 α4 to β2)
T1 sequence (P43681 29-627 limits assumed): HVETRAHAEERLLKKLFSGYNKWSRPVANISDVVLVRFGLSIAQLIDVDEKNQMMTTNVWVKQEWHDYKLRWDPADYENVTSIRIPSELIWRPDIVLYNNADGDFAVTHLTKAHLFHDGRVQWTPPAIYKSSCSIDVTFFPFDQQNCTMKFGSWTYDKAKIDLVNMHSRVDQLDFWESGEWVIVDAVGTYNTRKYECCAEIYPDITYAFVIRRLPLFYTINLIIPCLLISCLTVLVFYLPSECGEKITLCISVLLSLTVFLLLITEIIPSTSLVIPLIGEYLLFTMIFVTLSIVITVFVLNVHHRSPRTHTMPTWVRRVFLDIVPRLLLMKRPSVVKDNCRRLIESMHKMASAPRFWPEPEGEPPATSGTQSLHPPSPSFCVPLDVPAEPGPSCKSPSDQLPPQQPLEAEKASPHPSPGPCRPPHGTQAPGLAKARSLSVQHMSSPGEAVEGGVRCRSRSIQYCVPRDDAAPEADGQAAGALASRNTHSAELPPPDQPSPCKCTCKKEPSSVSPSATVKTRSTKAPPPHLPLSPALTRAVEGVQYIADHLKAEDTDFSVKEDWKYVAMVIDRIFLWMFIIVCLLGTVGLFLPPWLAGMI
T1 sequence (P17787 26-502): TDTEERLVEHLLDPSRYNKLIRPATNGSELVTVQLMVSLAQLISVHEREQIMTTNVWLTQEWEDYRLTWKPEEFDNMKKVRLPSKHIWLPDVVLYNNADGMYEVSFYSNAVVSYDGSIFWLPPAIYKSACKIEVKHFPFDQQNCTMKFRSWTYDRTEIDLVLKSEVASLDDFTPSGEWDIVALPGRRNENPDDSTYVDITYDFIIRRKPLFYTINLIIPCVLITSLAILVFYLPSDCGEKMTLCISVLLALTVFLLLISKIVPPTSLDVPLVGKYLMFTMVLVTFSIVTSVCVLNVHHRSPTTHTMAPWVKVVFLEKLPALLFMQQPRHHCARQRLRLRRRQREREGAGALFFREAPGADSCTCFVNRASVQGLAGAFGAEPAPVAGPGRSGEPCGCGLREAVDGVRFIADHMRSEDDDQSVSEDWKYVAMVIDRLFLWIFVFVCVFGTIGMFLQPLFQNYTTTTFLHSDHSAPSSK
The data set is described as follows: Two-microelectrode voltage clamp of ACh-activated currents in Xenopus oocytes. Format: cell-based. The procedure:
The human α4 and β2 type nAChRs were in a pSP64 expression vector. Standard techniques were used to linearize the vectors and use them as templates to make cRNA using SP6 as the polymerase. The human nicotinic clones were a gift from Dr. Jon Lindstrom, Ph.D. (Department of Neuroscience, University of Pennsylvania, Philadelphia, Pa.).
Xenopus laevis oocytes were removed from the females and defolliculated with collagenase. After the oocytes rested for 24 hours in L-15 oocyte medium, about 10 ng of a 1:1 ratio of α4 to β2 cRNA were injected into individual oocytes. A manual injector was used for this process (Nanoject; Drummond Scientific, Broomall, Pa.). The oocytes were incubated for 2-5 days in ND-96 medium (NaCl 96 mM, KCl 2 mM, MgCl2 1 mM, CaCl2 H2O 1.8 mM, HEPES 5 mM, Na-pyruvate 2.5 mM, theophylline 0.5 mM, and 10mg/L of gentamicin, adjusted to pH 7.5).
Whole oocytes were used to record currents using a Gene-Clamp 500 two-microelectrode voltage-clamp amplifier with an active ground (Axon Instruments, Inc., Foster, Cailf.). The recording electrodes were pulled from glass capillary tubing (Drummond, Broomall, Pa.) to obtain a resistance between 1 and 5 MΩ and filled with 3M KCl. Ba^2 Ringer's solution was used as the extracellular solution in order to avoid current amplification by calcium activated chloride currents (115 mM NaCl, 2.5 mM KCl, 1.8 mM BaCl2, 10 mM HEPES, 1 μM atropine, pH 7.4). Atropine was included to avoid activation of intrinsic muscarinic receptors. Experiments were performed at room temperature. Isoflurane was prepared from a saturated solution by serial dilution. Concentrations were verified by gas chromatography.
Oocytes were tested at a membrane potential of −60 mV. Bolus application of the agonist +/− indicated antagonist(s) was applied at a rate of 4 ml/min for a 2 second application.
Antagonists were pre-applied for 2 minutes prior to activation. Concentration response curves were made from the percent change in peak current from ACh activation in the presence of antagonist(s), compared to ACh alone. As the ACh concentration at central neuronal nAChRs is unknown, 1 mM ACh (saturating) was used to detect inhibition by isoflurane and mecamylamine experiments with mecamylamine. ACh 2 μM was used to detect potentiation by nicotine. Currents were measured in 5-8 cells for each data point. Clampex 7 (Axon instruments, Foster City, Calif.) was used for data acquisition.
Microcal Origins 5.0 (Microcal, Northampton, Mass.) was used for statistical calculations and graphical presentation. The in vitro data were fit to a modified Hill equation, y=100/(1+(x/IC50)^n), where IC50 is the concentration of drug at which of 50% of the response is inhibited and n is the Hill coefficient.

Data set [5] relates to mice. Put plainly: Nicotine-induced prostration, duration of mecamylamine blockade.
Procedure: (§2) The duration of mecamylamine's action was tested with two control experiments. First, 5 mice were injected with mecamylamine 5 mg/kg IP or saline. These mice were then tested at 1-hour intervals with nicotine 1 mg/kg IP. […] Mecamylamine plasma concentration was measured in 5 female mice, 1 hour after I.P. injection using a combination of Gas Chromatography and Mass Spectroscopy described by Jacob et al. (Jacob, 2000).
Data set [6] relates to ^3H-norepinephrine release from female mouse lumbar spinal cord slice. The data set is described as follows: 3H-norepinephrine release from superfused spinal cord slice. The following applies: 1 mM nicotine in perfusion buffer, p<0.02.
From the text: Spinal Cord Slice Preparation: The spinal cord was dissected from the mouse. Under CO2 narcosis the mouse was decapitated. The spinal column was removed and placed into cold dissection solution where the spinal cord was removed with a dissection microscope. The lumbar section of the cord was isolated and imbedded in a 3% low melting point agar (Fisher Scientific) block made in dissection solution. Transverse 400 micrometer slices were made using a Vibratone VT1000S slicing apparatus (Leica, Whetzlar, Germany). Slicing was performed in ice cold Krebs solution bubbled with 5%CO2/95%O2.
The cord slices were incubated in a solution of 1 ml of Krebs solution and 10 ul of 1-[7,8-^3H] noradrenaline in a closed environment surrounded by Krebs solution bubbled with CO2/O2 for 30 minutes. The slices were transferred into a superfusion and stimulation chamber (Warner Instruments Inc.,) where Krebs solution was allowed to perfuse over them for 30 minutes at a rate of 0.5 ml/min. The superfusion chamber thermostatically temperature controlled at 37° C. The solutions were pumped to the chamber at a constant rate of 0.5 ml/min using a Kwik-Pump 290 (Long). Following a 30 minute period for equilibration, collections were taken every 1-2.5 minutes. Ecolite scintillation fluid (15 ml) was then added to each collection vial. The samples were analyzed for radioactivity (CPM) using a Packard TRI CARB 2100 TR scintillation counter (Meriden, Conn.).
Dissection Krebs Solution (mM) NaCl 125, KCl 2.5, NaHCO3 26, NaH2PO4-H2O1.25, MgCl2 6,CaCl2 1.5, glucose 2.5. Perfusion Krebs Solution (mM) NaCl 125, KCl 2.5, NaHCO3 26, NaH2PO4—H2O 1.25, MgCl2 1,CaCl2 2, glucose 2.5.
After incubation with ^3H-norepinephrine, the cord slices were perfused with buffer for 30 minutes at 0.5 ml/minute. After equilibration, samples containing released ^3H-norepinephrine were collected at 2.5 minute intervals. After determination of baseline release, the slices were stimulated with 1 mM nicotine in the perfusion buffer.
The subject of data set [7] is women having pelvic surgery. The procedure:
In a double blind, randomized trial of women having pelvic surgery with an isoflurane anesthetic, either nicotine (nasal spray, 3 mg) or saline placebo was administered just prior to emergence from anesthesia. Postoperative pain was assessed using the visual analog scale (VAS). In the VAS, patients are asked how much pain they have on a scale from 0-10 where 0 is no pain and 10 is the worst pain imaginable. All patients had access to essentially unlimited morphine in a PCA pump as is routine after this type of surgery.

Another data set relates to non-smoking volunteers. The following applies: cited from earlier work.
The conditions of data set [8]: nicotine 1 mg/kg, Thompson, 1982, cited from earlier work.
Where [9] appears, read: 3 mg intranasally, Fishbein, 2000.
The mark [10] stands for this setting: 3 mg intranasally, Guthrie, 1999.

Procedure for in vivo: as §2

With `CCN(CCCl)Cc1ccccc1Br` [DSP4], the “MHPG concentration (HPLC)” value in data set [1] (Brain Stem, control 253.3) was found to be 104.9; in [1] (Medulla, control 194.5), 139.3; in [1] (Pons, control 235.9), 122.1; in [1] (Spinal cord, control 82.5), 62.6. Also, the “HVA concentration (HPLC)” value in data set [1] (Brain Stem, control 300.1) came to 275.2; in [1] (Medulla, control 118.5), 88.0; in data set [1] (Pons, control 100.7), 181.6; in data set [1] (Spinal cord, control 38.2), 23.0. The “DA concentration (HPLC)” value in data set [1] (Brain Stem, control 599.2) is listed as 621.0; in [1] (Medulla, control 168.7), 138.2; in [1] (Pons, control 128.1), 379.6; in data set [1] (Spinal cord, control 182.6) it was 210.9. Moreover, the “DOPAC concentration (HPLC)” value in [1] (Brain Stem, control 662.4) is recorded as 494.6; in [1] (Medulla, control 248.3), 196.0; in data set [1] (Pons, control 341.8), 345.3; in [1] (Spinal cord, control 136.4) it was 118.8. The “NE concentration (HPLC)” value came out at 811.2 in [1] (Brain Stem, control 1044.1); 812.0 in [1] (Medulla, control 1408.8); 811.6 in [1] (Pons, control 1345.9); 587.6 in [1] (Spinal cord, control 798.8). Also, the “5-HT concentration (HPLC)” value in [1] (Brain Stem, control 2336.9) came out at 2140.3; in data set [1] (Medulla, control 1152.5) it was 1054.9; in data set [1] (Pons, control 996.8) it was 1597.6; in data set [1] (Spinal cord, control 1122.1) it was 808.6. Also, the “5HIAA concentration (HPLC)” value in data set [1] (Brain Stem, control 2972.1) came out at 2746.9; in data set [1] (Medulla, control 1184.1) it was 1302.6; in data set [1] (Pons, control 1334.6), 2024.7; in data set [1] (Spinal cord, control 1057.9), 1111.3.

With `Clc1ccc(C2CC3CCC2N3)cn1` (stereo not drawn) [Epibatidine], the “potency for analgesia relative to morphine” value in data set [2] is recorded as “approximately 200 times”.

On to `CN1[C@@H]2CC[C@H]1C[C@@H](OC(=O)C(CO)c1ccccc1)C2` (stereo partly drawn) [atropine], for which the “effect on hyperalgesic response to isoflurane” value in the data set on mice [3] (atropine 5 mg/kg) is recorded as “had no effect on the hyperalgesic response to isoflurane”. The “minimum concentration that caused baseline hyperalgesia” value with mice [3] (mouse, in vivo) worked out at 5 mg/kg.

For the compound `CNC1(C)C2CCC(C2)C1(C)C` (stereo not drawn) [mecamylamine], the “ED50 for inhibition of seizures induced by NMDA” value in the data set with seizures induced by NMDA was 12 ± 3.2 mg/kg. Besides, in the data set with NMDA, the “concentration range with NMDA antagonist properties” value is roughly 100 µM. In addition, the concentration at 1 h is 200 ± 70 nM in “in vivo” (intraperitoneal) and 203 nM in “in vivo” (ip). In data set [4], the “mode of antagonism at heteromeric nAChRs” value is listed as “non-competitive antagonists”. Further, in data set [4] (1 mM ACh, −60 mV, room temperature, read-out: IC50 for inhibition of α4β2 nAChR), the half-inhibitory concentration (IC50) worked out at 290 ± 50 nM. Besides, the “interaction of mecamylamine and isoflurane applied together (isobolographic analysis)” value in [4] (inhibition of α4β2 nAChR activation) is listed as “within the 95% confidence intervals for additivity”. The “duration of blockade of prostration from nicotine 1 mg/kg IP” value in the data set with mice [5] (mecamylamine 5 mg/kg IP, tested at 1-hour intervals) is “up to 4 hours”.

On to `CN1CCC[C@H]1c1cccnc1` [nicotine, (s)-(−)-nicotine], for which, in data set [6], the “release of ^3H-norepinephrine” value is given as “caused an increase in the release of ^3H-norepinephrine”. Moreover, the ill effects result in data set [7] (nicotine nasal spray 3 mg) was “no severe ill effects”. Besides, the “postoperative pain, VAS scores” value in data set [7] (nicotine nasal spray 3 mg prior to emergence vs saline placebo) is given as “significantly lower VAS scores”. Further, the heart rate result in data set [7] (nicotine nasal spray 3 mg vs placebo) is “higher heart rates”. Further, the “morphine used in the first hour (PCA pump)” value in [7] (nicotine nasal spray 3 mg, placebo 12 mg) stood at 4 mg. The blood pressures result in [7] (with or without nicotine) is “not different”. In the data set on non-smoking volunteers (setting [9]), the “average increase in systolic blood pressure” value is 7 mM of mercury and the “diastolic blood pressure or heart rate” value is on record as “no change”. In the data set with non-smoking volunteers (setting [10]), the arterial peak concentration was 100 µM and the “steady state venous concentration” value was 30 µM. For the same compound, in the data set on non-smoking volunteers (intranasal nicotine), the “time of peak effect” value is “peak effect in five minutes” and the “time until effect is dissipated” value is recorded as “dissipated in about one hour”. For the same compound, in the data set with mice [3] (mouse, in vivo), the “analgesia by ICV nicotine” value was “caused significant analgesia both in the presence and absence of isoflurane”; the “effect of ICV nicotine on isoflurane hyperalgesia” value was “did not prevent hyperalgesia with isoflurane”. The “protection against isoflurane hyperalgesia in presence of atropine” value in the data set on mice [3] (nicotine 1 mg/kg, atropine 5 mg/kg) is listed as “remained protective against the hyperalgesia”. In the data set with mice [3] (nicotine pretreatment, baseline or isoflurane), the “effect on HPWL in DSP-4 treated mice” value was “without effect”. Besides, in data set [4] (ACh 2 μM nicotine 2 μM, given concentration of isoflurane), the “current relative to ACh 2 μM alone in presence of isoflurane” value is listed as “always larger”. For the same compound, in [4] (nicotine 2 μM added to ACh 2 μM), the “current relative to ACh alone” value is “produces a larger current than ACh alone”. In addition, the “time until mice lay prone” value in the data set on mice [5] (nicotine 1 mg/kg IP, mice not pretreated with mecamylamine) was no more than 5 min. Moreover, in data set [8], the “detectability by HPLC at 40 minutes” value is recorded as “undetectable by HPLC at 40 minutes”. Also, in data set [8] (at 5 minutes), the peak concentration entry was “approximately 2 μM”.
